Experimental data taken from patent US7317038B2, “Nerve regeneration promoters containing semaphorin inhibitor as the active ingredient” (Dainippon Sumitomo Pharma Co., Ltd., priority 2000, dated 2008).
Entries after “also recorded” stand apart in the source; their conditions may differ.

Key:
[1] = tested on: adult rat models for olfactory nerve axotomy; assay: In vivo nerve regeneration after olfactory nerve axotomy; details: for Positive section No. (which section from the vertex, average ± SE): HRP-positive glomerulus
Protocol: Male Wister rats (6.5-week-old) were purchased from CHARLES RIVER JAPAN, INC. and bred under free feeding and water uptake in the dedicated breeding room. A sample solution was prepared by diluting SPF-3059-1 to lmg/ml with PBS and filled in an osmotic pressure pump (alzet 2004, ALZA co., USA). A pump filled with PBS was used as a control. The sample solution and the like were prepared on the day before the operation and the osmotic pressure pump was bathed in PBS and placed overnight at room temperature. Just before the operation, a L-cannula was connected to the one end of a silicon tube filled with the sample solution and the like, and the other end of the tube was connected to the pump. A rat was anesthetized with pentbarbital (50 mg/kg, intrapenitrially injected), and its head was fixed to the stereotaxic apparatus. The scalp was incised along the median and the cranium above the olfactory bulb was opened to expose the olfactory bulb (anterior part). In order to axotomize olfactory nerve, a knife (a razor was cut into 1.5 mm width) was inserted in between the olfactory bulb and the cribriform plate. The olfactory nerve which is projected on the upper olfactory bulb is axotomized by this handling. The L-cannula was fixed to the cranium-opening above the olfactory with surgical instant adhesive and dental cement so that the edge of cannula is located in the vicinity of the incision. The sample output was set to 6 μl (6 μg)/day. The pump was subcutaneously inserted in the dorsal neck and the incision was sutured. Then the animal was recovered.
Two and three weeks after the operation, the rat anesthetized with pentbarbital was laid on its back and injected with 100 μl of 1% WGA-HRP/PBS (TOYOBO) into the nasal cavity using a microsyringe. 24 hours after the HRP injection, the rat was further anesthetized with pentbarbital (50 mg/kg, intrapenitrially injected) and was thoracically incised. […]
Regeneration of olfactory nerves was quantitatively assessed by observing in which horizontal section of the olfactory bulb from the vertex did HRP-positive glomerulus emerge. […]

[2] = molecular target: T1, binding of Sema3A and Neuropilin-1 (Mus musculus, UniProt O08665); assay: Sema3A-receptor-binding experiment (Sema3A-AP to Neuropilin-1 expressing COS7 cells); details: SPF-3059-1 0 to 10 μg/ml
T1 construct: alkaline phosphatase was fused from the 758th amino acid to the C terminal side in said Sema3A; expressed in transfected cells; host or cells: COS7
T1 sequence (O08665 21-758 limits assumed): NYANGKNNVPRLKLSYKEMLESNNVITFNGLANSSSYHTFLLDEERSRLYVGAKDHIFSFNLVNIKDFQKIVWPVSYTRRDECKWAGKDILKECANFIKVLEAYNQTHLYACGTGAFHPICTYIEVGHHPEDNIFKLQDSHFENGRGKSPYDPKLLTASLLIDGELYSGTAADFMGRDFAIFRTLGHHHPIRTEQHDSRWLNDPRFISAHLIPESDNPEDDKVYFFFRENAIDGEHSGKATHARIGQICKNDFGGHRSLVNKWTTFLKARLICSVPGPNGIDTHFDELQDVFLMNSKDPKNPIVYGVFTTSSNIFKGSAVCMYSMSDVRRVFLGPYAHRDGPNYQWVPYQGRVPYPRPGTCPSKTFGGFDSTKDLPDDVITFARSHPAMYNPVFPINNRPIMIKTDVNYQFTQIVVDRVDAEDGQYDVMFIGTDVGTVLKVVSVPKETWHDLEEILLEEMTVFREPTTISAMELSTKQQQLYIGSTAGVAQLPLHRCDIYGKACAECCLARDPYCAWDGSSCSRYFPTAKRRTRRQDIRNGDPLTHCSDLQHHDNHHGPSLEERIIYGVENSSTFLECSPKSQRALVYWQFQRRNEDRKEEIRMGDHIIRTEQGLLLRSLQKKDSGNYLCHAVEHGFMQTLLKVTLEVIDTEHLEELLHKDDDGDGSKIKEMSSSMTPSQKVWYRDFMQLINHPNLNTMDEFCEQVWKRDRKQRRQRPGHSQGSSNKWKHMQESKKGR
From the text: Whether SPF-3059-1 inhibits the binding of Sema3A and Neuropilin-1, which is a component constituting Sema3A receptor complex, was examined in the receptor-binding experiment. Neuropilin-1 and plexin Al are currently known as constituting components of Sema3A receptors. However, mainly Neuropilin-1 is known to contribute to Sema3A binding. Sema3A fused with alkaline phosphatase (human-derived: heat-resistance) (Sema3A-AP) was used as a ligand in the receptor-binding experiment and the amount bound to the receptor was detected with the alkaline phosphatase activity as an index. Mouse-derived Sema3A was used. A recombinant gene was generated in which alkaline phosphatase was fused from the 758th amino acid to the C terminal side in said Sema3A. This recombinant gene was then introduced into a COS7 cell where it was expressed and secreted and Sema3A-AP was prepared.
The receptor-binding experiment was performed as described below. The Neuropilin-1 expressing plasmid (pUCSRα-Neuropilin-1) was introduced into COS7 cells and cultivated for 24 hours. These cells express Neuropilin-1 on the cell surface. […] The alkaline phosphatase activity derived from Sema3A-AP in the cell extract (=binding amount of Sema3A-AP) was determined. […] The solution was then measured for its absorbance at 405 nm (p-nitrophenol: generated from p-nitirophenyl phosphate with alkaline phosphatase).

## CC(=O)c1c(C)c(C(=O)C2COc3cc(O)c(O)c(C(=O)O)c3C2=O)cc2c(=O)c3c(C(=O)O)c(O)c(O)cc3oc12 (stereo not shown) [SPF-3059-1]
[1]
  in vivo nerve-regeneration promoting action in olfactory nerve axotomy (in words): marked nerve-regeneration promoting action
[1]; Week 2, 6 μg/day by osmotic pump near incision
  Positive section No. (which section from the vertex, average ± SE): 8.3 ± 1.9
[1]; Week 3, 6 μg/day by osmotic pump near incision
  Positive section No. (which section from the vertex, average ± SE): 5.2 ± 1.9
[2]
  binding of Sema3A-AP to Neuropilin-1 expressing COS7 cells: decrease in a concentration-dependent manner; also recorded: inhibits the binding of Sema3A-AP to Neuropilin-1 in a concentration-dependent manner
